Measured values reported in the supplement of paper PMC11208160.

Test: recombinant UMI read abundance after kanamycin selection (control-corrected) (log10(CPM+1)); higher = more efficient recombination; extreme values may be limits of the assay; sequences stand for … in AGTGCAGAGAAAATCGGCCAGTTTTCTCTGCCTGCAGTCCGCATGCCGTGGGACCCCTTGGGTTCTAACCTGTTGCCTAGATTTATGCAGCGGACTGCCTTTCTCCCAAAGTGATAAACCGG…AGGTTGGTTTCACT; site = the 11-nt donor
Outline: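 Values, expressed as log10(CPM+1), derive from recombinant UMI counts converted to CPM, averaged across replicates and scaled by control-derived factors. Plating was with IPTG (0.07 mM) plus kanamycin or unselected, two replicates each. The screen pooled donor and donor-binding-loop pairs for the IS621 bridge recombinase in Escherichia coli.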
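Also: IS621 bridge recombinase in Escherichia coli cells against a fixed T5 target plasmid.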

Sequence	recombinant UMI read abundance (log10)
GAATGGCCATGGACCGGTTTTCCCGGTAATCCGTATTTGCA (site GACTGGCCTTG)	0.0119
GAATGGCCATGGACCGGTTTTCCCGGTAATCCGTATTTGCA (site GAGTGGCCTTG)	0
GAATGGCCATGGACCGGTTTTCCCGGTAATCCGTATTTGCA (site GATTGGCCTTG)	0
GAATGGCCATGGACCGGTTTTCCCGGTAATCCGTATTTGCA (site GCATGGCCTTG)	0
GAATGGCCATGGACCGGTTTTCCCGGTAATCCGTATTTGCA (site GGATGGCCTTG)	0
GAATGGCCATGGACCGGTTTTCCCGGTAATCCGTATTTGCA (site GTATGGCCTTG)	0
GAATGGCCATGGACCGGTTTTCCCGGTAATCCGTATTTGCA (site TAATGGCCTTG)	0.00558
GAATGGGCATGGACCGGTTTTCCCGGTAATCCGTATTTGCA (site GAATGGACTTG)	1.98
GAATGGGCATGGACCGGTTTTCCCGGTAATCCGTATTTGCA (site GAATGGCCTTG)	0.00596
GAATGGGCATGGACCGGTTTTCCCGGTAATCCGTATTTGCA (site GAATGGGCTTG)	2.42
GAATGGGCATGGACCGGTTTTCCCGGTAATCCGTATTTGCA (site GAATGGTCTTG)	2.23
GACAAAACATGGACCGGTTTTCCCGGTAATCCGTATTTGGT (site GACAAAACTAC)	0.855
GACAAAACATGGACCGGTTTTCCCGGTAATCCGTATTTGGT (site GACAAACCTAC)	0
GACAAAACATGGACCGGTTTTCCCGGTAATCCGTATTTGGT (site GACAAAGCTAC)	0.517
GACAAAACATGGACCGGTTTTCCCGGTAATCCGTATTTGGT (site GACAAATCTAC)	0
GACAAACCATGGACCGGTTTTCCCGGTAATCCGTATTTGAT (site GACAAACCTAA)	0

Sequence	recombinant UMI read abundance (log10)
GACAAACCATGGACCGGTTTTCCCGGTAATCCGTATTTGAT (site GACAAACCTAC)	0
GACAAACCATGGACCGGTTTTCCCGGTAATCCGTATTTGAT (site GACAAACCTAG)	0
GACAAACCATGGACCGGTTTTCCCGGTAATCCGTATTTGAT (site GACAAACCTAT)	0
GACAAACCATGGACCGGTTTTCCCGGTAATCCGTATTTGGT (site AACAAACCTAC)	0
GACAAACCATGGACCGGTTTTCCCGGTAATCCGTATTTGGT (site CACAAACCTAC)	0
GACAAACCATGGACCGGTTTTCCCGGTAATCCGTATTTGGT (site GAAAAACCTAC)	0
GACAAACCATGGACCGGTTTTCCCGGTAATCCGTATTTGGT (site GACAAAACTAC)	0
GACAAACCATGGACCGGTTTTCCCGGTAATCCGTATTTGGT (site GACAAACCTAA)	0
GACAAACCATGGACCGGTTTTCCCGGTAATCCGTATTTGGT (site GACAAACCTAC)	0
GACAAACCATGGACCGGTTTTCCCGGTAATCCGTATTTGGT (site GACAAACCTAG)	0
GACAAACCATGGACCGGTTTTCCCGGTAATCCGTATTTGGT (site GACAAACCTAT)	0
GACAAACCATGGACCGGTTTTCCCGGTAATCCGTATTTGGT (site GACAAACCTCC)	0.0384
GACAAACCATGGACCGGTTTTCCCGGTAATCCGTATTTGGT (site GACAAACCTGC)	0
GACAAACCATGGACCGGTTTTCCCGGTAATCCGTATTTGGT (site GACAAACCTTC)	0
GACAAACCATGGACCGGTTTTCCCGGTAATCCGTATTTGGT (site GACAAAGCTAC)	0
GACAAACCATGGACCGGTTTTCCCGGTAATCCGTATTTGGT (site GACAAATCTAC)	0
